Assay results: patent publication US20240316059A1, “PEPTIDE DRUG CONJUGATES” (Oncopeptides AB, priority 2021, published 2024)
Read-outs that look alike come from different tables or passages of the source.

Columns and labels:
[1] = test system: MM.1S cells; test: In vitro cytotoxic potency in MM.1S cell viability assay (CellTiter-Glo); type: cell-based, human; conditions: Homo sapiens, MM1.S, 72 h
Procedure: Methods: MM.1S Cells were cultivated in RPMI medium 1640 (IX) supplemented with 10 μg/μL penicillin/streptomycin, 10% heat inactivated FBS, 0.1 mM Sodium Pyruvate, 1×MEM NEAA (ThermoFisher) and 1 mM HEPES. Cells were grown to reach log phase before being exposed to the test compounds.
(§1) Test compounds (Example compounds 1 to 36, 38 to 41 and 45 to 48) and comparative compounds (bendamustine, busulfan, melphalan, chlorambucil and 4-hydroperoxy cyclophosphamide) were dissolved in 100% DMSO and added to a 384 assay plate. Additional DMSO was added to maintain the same final DMSO concentration (0.2%) in all wells. 25 μL cell suspension with a concentration of 100000 cells/mL was added to each well. The cells were cultured in a CO2 incubator at 37° C. for 72 h. Plates were equilibrated to room temperature for 30 minutes before adding 20 μL CellTiter-Glo® 2.0 (Promega) reagent to all wells. The plate was then allowed to stabilize for 20 minutes before recording the luminescence (emission filter 700 nm) in an Envision plate reader.
(§2) All cells were cultivated in RPMI medium 1640 (IX). All media was supplemented with 10 μg/μl penicillin/streptomycin, 10% heat inactivated FBS, 0.1 mM Sodium Pyruvate, 1×MEM NEAA (ThermoFisher) and 1 mM HEPES. The DERL-2 cells had higher FBS (20%) and 40 ng/mL IL-2 was added. hPBMCs were thawed and allowed to acclimatise overnight and then stimulated with 10 μg/mL PHA-M and 40 ng/mL IL-2 for 4 hours before being exposed to test compounds. All cells, except for hPBMCs, were grown to reach log phase before being exposed to the test compounds.
as §1, with “compounds” for “compounds (Example compounds 1 to 36, 38 to 41 and 45 to 48) and comparative compounds (bendamustine, busulfan, melphalan, chlorambucil and 4-hydroperoxy cyclophosphamide)”, “(Em” for “(emission”

[2] = test system: U937; test: In vitro cytotoxicity, U937 (Histiocytic Lymphoma); type: cell-based; conditions: Homo sapiens, U-937, 72 h, read-out: Cytotoxicity IC50, U937
Procedure: as §2
as §1, with “compounds” for “compounds (Example compounds 1 to 36, 38 to 41 and 45 to 48) and comparative compounds (bendamustine, busulfan, melphalan, chlorambucil and 4-hydroperoxy cyclophosphamide)”, “(Em” for “(emission”

[3] = test system: RPMI-8226; test: In vitro cytotoxicity, RPMI-8226 (Multiple Myeloma, resistant); type: cell-based; conditions: Homo sapiens, RPMI-8226, 72 h, read-out: Cytotoxicity IC50, RPMI-8226
Procedure: as §2
as §1, with “compounds” for “compounds (Example compounds 1 to 36, 38 to 41 and 45 to 48) and comparative compounds (bendamustine, busulfan, melphalan, chlorambucil and 4-hydroperoxy cyclophosphamide)”, “(Em” for “(emission”

[4] = test system: SK-MM-1; test: In vitro cytotoxicity, SK-MM-1 (Plasma Cell Leukemia); type: cell-based; conditions: Homo sapiens, 72 h, read-out: Cytotoxicity IC50, SK-MM-1
Procedure: as §2
as §1, with “compounds” for “compounds (Example compounds 1 to 36, 38 to 41 and 45 to 48) and comparative compounds (bendamustine, busulfan, melphalan, chlorambucil and 4-hydroperoxy cyclophosphamide)”, “(Em” for “(emission”

[5] = test system: DOHH-2; test: In vitro cytotoxicity, DOHH-2 (B Cell Lymphoma); type: cell-based; conditions: Homo sapiens, DOHH-2, 72 h, read-out: Cytotoxicity IC50, DOHH-2
Procedure: as §2
as §1, with “compounds” for “compounds (Example compounds 1 to 36, 38 to 41 and 45 to 48) and comparative compounds (bendamustine, busulfan, melphalan, chlorambucil and 4-hydroperoxy cyclophosphamide)”, “(Em” for “(emission”

[6] = test system: HG-3; test: In vitro cytotoxicity, HG-3 (Chronic Lymphocytic Leukemia); type: cell-based; conditions: Homo sapiens, HG-3, 72 h, read-out: Cytotoxicity IC50, HG-3
Procedure: as §2
as §1, with “compounds” for “compounds (Example compounds 1 to 36, 38 to 41 and 45 to 48) and comparative compounds (bendamustine, busulfan, melphalan, chlorambucil and 4-hydroperoxy cyclophosphamide)”, “(Em” for “(emission”

[7] = test system: SC-1; test: In vitro cytotoxicity, SC-1 (B cell Lymphoma); type: cell-based; conditions: Homo sapiens, SC-1, 72 h, read-out: Cytotoxicity IC50, SC-1
Procedure: as §2
as §1, with “compounds” for “compounds (Example compounds 1 to 36, 38 to 41 and 45 to 48) and comparative compounds (bendamustine, busulfan, melphalan, chlorambucil and 4-hydroperoxy cyclophosphamide)”, “(Em” for “(emission”

[8] = test system: SU-DHL-8; test: In vitro cytotoxicity, SU-DHL-8 (B-cell non-Hodgkin Lymphoma); type: cell-based; conditions: Homo sapiens, SU-DHL-8, 72 h, read-out: Cytotoxicity IC50, SU-DHL-8
Procedure: as §2
as §1, with “compounds” for “compounds (Example compounds 1 to 36, 38 to 41 and 45 to 48) and comparative compounds (bendamustine, busulfan, melphalan, chlorambucil and 4-hydroperoxy cyclophosphamide)”, “(Em” for “(emission”

[9] = test system: Toledo; test: In vitro cytotoxicity, Toledo (Diffuse Large B Cell Lymphoma); type: cell-based; conditions: Homo sapiens, 72 h, read-out: Cytotoxicity IC50, Toledo
Procedure: as §2
as §1, with “compounds” for “compounds (Example compounds 1 to 36, 38 to 41 and 45 to 48) and comparative compounds (bendamustine, busulfan, melphalan, chlorambucil and 4-hydroperoxy cyclophosphamide)”, “(Em” for “(emission”

[10] = test system: DERL-2; test: In vitro cytotoxicity, DERL-2 (T cell Lymphoma); type: cell-based; conditions: Homo sapiens, 72 h, read-out: Cytotoxicity IC50, DERL-2
Procedure: as §2
as §1, with “compounds” for “compounds (Example compounds 1 to 36, 38 to 41 and 45 to 48) and comparative compounds (bendamustine, busulfan, melphalan, chlorambucil and 4-hydroperoxy cyclophosphamide)”, “(Em” for “(emission”

[11] = test system: SUP-T1; test: In vitro cytotoxicity, SUP-T1 (T cell Lymphoma); type: cell-based; conditions: Homo sapiens, SUP-T1, 72 h, read-out: Cytotoxicity IC50, SUP-T1
Procedure: as §2
as §1, with “compounds” for “compounds (Example compounds 1 to 36, 38 to 41 and 45 to 48) and comparative compounds (bendamustine, busulfan, melphalan, chlorambucil and 4-hydroperoxy cyclophosphamide)”, “(Em” for “(emission”

[12] = In vitro cytotoxicity, human peripheral blood mononuclear cells; type: cell-based; conditions: CellTiter-Glo 2.0, stimulated with PHA-M and IL-2, read-out: Cytotoxicity IC50, hPBMC
Procedure: as §2
as §1, with “compounds” for “compounds (Example compounds 1 to 36, 38 to 41 and 45 to 48) and comparative compounds (bendamustine, busulfan, melphalan, chlorambucil and 4-hydroperoxy cyclophosphamide)”, “(Em” for “(emission”

[13] = test system: DNA prepared from MM.1S cells (nuclear HPRT and mitochondrial DNA); test: Direct DNA damage, PCR amplification of treated DNA (HPRT and mtDNA primers); type: biochemical, human; conditions: 0.25 μM compound, 30 minutes, 37° C., 1 μg DNA
Procedure: Method: DNA was prepared from MM.1S cells by QIAGEN genomic tip 20/G according to protocol described in Furda et al., Methods Mol Biol, 2012. 1 μg of DNA was treated with 0.25 μM compound for 30 minutes at 37° C. DMSO was used as control treatment. 20 ng of the treated DNA was PCR amplified using Phusion Hot Start II High Fidelity PCR Master Mix (Thermo Scientific) and primers directed to either HPRT or primers directed to mitochondrial DNA (mtDNA) was used, generating 10.4 or 8.9 kb fragments, respectively. The PCR reactions were separated on a 1% agarose gel and visualized by ChemiDoc™ MP Imaging System (BioRad). Example compounds 1, 2 and 38 were investigated, as were compounds 18 and 20, which are metabolites of compound 1. They were compared with bendamustine, melphalan and DMSO control. The results for compounds 1, 2, 18 and 20 with the HPRT primers are shown in FIG. 4(A); the results with the mtDNA primers are shown in FIG. 4(B).

[14] = read-out: Cytotoxicity IC50, MM.1S

SMILES | IC50 [1, 14] [nM] | IC50 ([1]; read-out: MM.1S IC50) [nM] | IC50 [2] [nM] | IC50 [3] [nM] | IC50 [4] [nM] | IC50 [5] [nM] | IC50 [6] [nM] | IC50 [7] [nM] | IC50 [8] [nM] | IC50 [9] [nM] | IC50 [10] [nM] | IC50 [11] [nM] | IC50 at 72 h [12] [nM] | DNA damage on nuclear and mitochondrial DNA (PCR band) [13]
CCOC(=O)[C@H](Cc1ccc(F)cc1)NC(=O)[C@@H](N)CCc1nc2cc(N(CCCl)CCCl)ccc2n1C [Example 2, Ethyl (2S)-2-[[(2S)-2-amino-4-[5-[bis(2-chloroethyl)amino]-1-methyl-benzimidazol-2-yl]butanoyl]amino]-3-(4-fluorophenyl)propanoate] | 7.8 | 7.8 | 14.2 | 41.5 | 38.3 | 5.3 | 25.7 | 21 | 20.4 | 6.6 | 7.8 | 17.8 | 7.5 | strong DNA damaging effect
CCOC(=O)[C@H](Cc1nc2cc(N(CCCl)CCCl)ccc2n1C)NC(=O)[C@@H](N)CC(C)C [Example 10, Ethyl (2S)-2-[[(2S)-2-amino-4-methyl-pentanoyl]amino]-3-[5-[bis(2-chloroethyl)amino]-1-methyl-benzimidazol-2-yl]propanoate] | 19.2 | 19.2 | 19.4 | 335 | 62.4 | 63.9 | 71.3 | 169 | 22.1 | 8.5 | 22.6 | 35.6 | 26.4 | 
